Key:
ITK = biological target: T1, ITK (Homo sapiens, UniProt Q08881); assay: Inhibition of ITK kinase; type: biochemical; conditions: 1% DMSO
T1 sequence (Q08881 1-620): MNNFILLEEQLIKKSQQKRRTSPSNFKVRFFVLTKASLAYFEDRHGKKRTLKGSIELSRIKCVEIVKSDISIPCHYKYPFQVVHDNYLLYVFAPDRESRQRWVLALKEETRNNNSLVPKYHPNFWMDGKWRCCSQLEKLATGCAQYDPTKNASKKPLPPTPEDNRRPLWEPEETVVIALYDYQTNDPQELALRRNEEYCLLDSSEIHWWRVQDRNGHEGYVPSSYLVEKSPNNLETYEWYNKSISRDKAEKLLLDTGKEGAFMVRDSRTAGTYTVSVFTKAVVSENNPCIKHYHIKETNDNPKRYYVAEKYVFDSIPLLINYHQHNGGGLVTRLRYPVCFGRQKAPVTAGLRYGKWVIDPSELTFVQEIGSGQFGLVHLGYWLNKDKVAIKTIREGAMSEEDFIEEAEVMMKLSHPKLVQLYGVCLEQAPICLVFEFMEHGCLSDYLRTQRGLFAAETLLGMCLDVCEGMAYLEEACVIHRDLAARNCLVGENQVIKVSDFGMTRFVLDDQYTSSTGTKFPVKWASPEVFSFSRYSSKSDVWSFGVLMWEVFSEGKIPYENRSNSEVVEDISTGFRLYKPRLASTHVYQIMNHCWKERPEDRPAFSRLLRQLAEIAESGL
Source text: The Z′-LYTE® biochemical assay is a fluorescence-based, coupled-enzyme assay based on the differential sensitivity of phosphorylated and non-phosphorylated peptides to proteolytic cleavage. A peptide substrate for a kinase is labeled with two fluorophores, one at each end, to form a FRET pair.
In the primary reaction, the kinase transfers the gamma-phosphate of ATP to a single tyrosine, serine, or threonine residue in the synthetic FRET-peptide substrate. In the secondary reaction, a site-specific protease recognizes and cleaves non-phosphorylated FRET-peptides. […] An inhibitory activity of a compound is thus determined from its effect on the cleavage of the synthetic FRET-peptide substrate.
Inhibition of BMX, BTK, ITK, and TXK kinases by a test compound is determined in 50 mM HEPES, pH 7.5, 0.01% BRIJ-35, 10 mM MgCl2, and 1 mM EGTA in the presence of 1% DMSO by volume.
Binding of an ALEXA FLUOR® conjugate or “tracer” to a kinase is detected by addition of a Eu-labeled anti-tag antibody. […] An inhibitory activity of a compound is thus determined from the extent of the FRET signal loss. Inhibition of ITK and TEC kinases by a test compound is determined in the presence of 1% DMSO.
Inhibition of BMX, BTK, PIK3C-D, ITK, TEC, and TXK kinases by compound A2 was measured using one of the assays described in Examples 2A and 3A.

[1] = system: A431 human epidermoid carcinoma cells (wild-type ERBB1); assay: Cell proliferation assay, A431; type: cell-based; conditions: A-431, 72 hrs
Method: (§1) The biological activity of a test compound was determined using cell proliferation assays. The activity against wild-type ERBB 1 was determined using A431 human epidermoid carcinoma cells (ATCC) and human epidermal keratinocytes, neonatal, or HEKn cells (ATCC).
(§2) A431 cells were grown in DMEM (Invitrogen) supplemented with 10% FBS (Lonza), 1% penicillin-streptomycin, and 2 mM glutamine (Invitrogen). HEKn cells were grown in EPILIFE® (Invitrogen) supplemented with HKGS (Invitrogen). HCC827 and H1975 were cultured in RPMI1640 supplemented with 10% FBS (Lonza), 1% penicillin-streptomycin, and 2 mM glutamine (Invitrogen). Cells were maintained and propagated at 37° C. and 5% CO2 in a humidified cell culture incubator. Aliquots of cells from early passages were preserved for liquid nitrogen storage. Frozen vials of cells were thawed at 37° C. water bath. Cells were spun to remove freezing medium. The newly revived frozen cells were adapted in culture for 10 days before used for compound testing. Cells used in the assay were less than 20 subculture passages or 3 months in culture.
(§3) The test compounds were dissolved in dimethylsulfoxide (DMSO) and stored at -20° C. before testing. […] The cells were placed in a culture incubator overnight. Next day, test compounds in DMSO were added to the cells and placed back in the culture incubator for 72 hrs. In the meantime, the cell numbers at time zero of the compound treatment (T0) was measured by ENERCOUNT® (Codex BioSolutions). At the end of the compound treatment, the cell numbers were again measured by EnerCount as T72 values. The untreated controls (Ctrl) were cell numbers recorded from the 0.1% DMSO treatment. The percent growth inhibition by the test compound was calculated by the formula: (1- (T72-T0)/(Ctrl-T0)) x 100.
(§4) The results are summarized in Tables 1 and 2, wherein A represents a value no greater than 500 nM, B represents a value greater than 500 nM but no greater than 1 µM, C represents a value greater than 1 µM but no greater than 5 µM, and D represents a value greater than 5 µM; and wherein A′ represents a ratio of greater than 10, B′ represents a ratio of no greater than 10 but no less than 5, C′ represents a ratio of no greater than 5 but no less than 2, and D′ represents a ratio of no greater than 2.

[2] = system: HCC827 human NSCLC adenocarcinoma cells (mutant ERBB1, deletion of E746-A759 in exon 19); assay: Cell proliferation assay, HCC827; type: cell-based
Method: as §1, §2, §3, §4

C=CC(=O)N1CCCC[C@@H](n2c(NC(=O)c3ccnc(C)c3)nc3cccc(OC4CCN(C(C)=O)CC4)c32)C1 [Compound A2, (R)-N-(7-((1-acetylpiperidin-4-yl)oxy)-1-(1-acryloylazepan-3-yl)-1H-benzo[d]imidazol-2-yl)-2-methylisonicotinamide]
IC50 (ITK): ≤ 10 nM | Inhibition (ITK): A (A represents a value no greater than 10 nM or no less than 90% inhibition) | GI50 [1]: 500 to 1000 nM | Ratio (Wild-type ERBB1/Mutant ERBB1) A431/HCC827 ([2]; GI50 ratio A431/HCC827): A′ (A′ represents a ratio of greater than 10) | Ratio (Wild-type ERBB1/Mutant ERBB1) HEKn/HCC827 ([2]; GI50 ratio HEKn/HCC827): A′ (A′ represents a ratio of greater than 10) | GI50 ([2]; Homo sapiens, HCC827 cells, 72 hrs): < 500 nM

Source: patent US20230271938A1, “BENZIMIDAZOLES FOR USE IN THE TREATMENT OF CANCER AND INFLAMMATORY DISEASES” (Capella Therapeutics, Inc., priority 2015, published 2023)
